Source: patent publication US11708283B2, “Metal-chelating compositions and their use in methods of removing or inhibiting barium scale” (CORNELL UNIVERSITY, priority 2018, dated 2023)

Key:
[1] = CRC Handbook; cited from earlier work
[2] = Hydroxyapatite challenge of Ba-L complexes (GFAAS); format: physicochemical; conditions: HAP suspension, pH 7.6, after 20 h
Experimental: HAP was suspended in solutions containing the complexes formed in situ (1.1 equiv L, 1.0 equiv Ba^2+) in pH 7.6 buffer, and the amount of Ba^2+ remaining in the liquid phase, reflecting intact Ba-L complex, was determined by graphite furnace atomic absorption spectroscopy (GFAAS). Whereas free Ba^2+ is adsorbed by HAP in less than 10 min, Ba-macropa and Ba-macropaquin respectively retained 82% and 68% of this ion after 20 h. […] This feature may be important for Ba^2+ chelation in industrial applications, such as scale dissolution, because numerous other metal ions are present during these processes. […]
More specifically, hydroxyapatite (HAP, Ca5(PO4)3(OH)) challenges were carried out in 500 mM Tris buffer. […] The concentrations of these stocks were verified by quantitative NMR (n=2 for each ligand) using two independently prepared standards of potassium hydrogen phthalate in D2O. […] The concentration of macroquin-SO3 was determined by UV-vis spectrophotometry from the average of two titrations with Ba^2+. […] The absorbance at 320 nm was monitored until spectral changes ceased, at which point [Ba^2+]=[L]. From the volume of titrant added, the concentration of the stock solution of macroquin-SO3 was calculated to be 8.17 mM, which was within 9% of the theoretical value of 8.96 mM based on mass. […]

For `O=S(=O)([O-])[O-].[Ba+2]` [BaSO4], the Ksp [1] is listed as 1.08×10^−10.
For `O=C([O-])c1cccc(CN2CCOCCOCCN(Cc3cccc(C(=O)[O-])n3)CCOCCOCC2)n1.[Ba+2]` [Ba-macropa], the “Ba^2+ remaining in the liquid phase (intact Ba-L complex)” value [2] was 82%.
